Results taken from US7932262B2 (Novartis AG, priority 2006, dated 2011).
Read-outs that look alike come from different tables or passages of the source.

How the values were obtained:
[1] = biological target: T1, PDK1 kinase (Homo sapiens, UniProt O15530); test: PDK1 Kinase Alpha Screen Assay; assay type: biochemical; conditions: read-out: PDK1 IC50
T1 sequence (O15530 1-556): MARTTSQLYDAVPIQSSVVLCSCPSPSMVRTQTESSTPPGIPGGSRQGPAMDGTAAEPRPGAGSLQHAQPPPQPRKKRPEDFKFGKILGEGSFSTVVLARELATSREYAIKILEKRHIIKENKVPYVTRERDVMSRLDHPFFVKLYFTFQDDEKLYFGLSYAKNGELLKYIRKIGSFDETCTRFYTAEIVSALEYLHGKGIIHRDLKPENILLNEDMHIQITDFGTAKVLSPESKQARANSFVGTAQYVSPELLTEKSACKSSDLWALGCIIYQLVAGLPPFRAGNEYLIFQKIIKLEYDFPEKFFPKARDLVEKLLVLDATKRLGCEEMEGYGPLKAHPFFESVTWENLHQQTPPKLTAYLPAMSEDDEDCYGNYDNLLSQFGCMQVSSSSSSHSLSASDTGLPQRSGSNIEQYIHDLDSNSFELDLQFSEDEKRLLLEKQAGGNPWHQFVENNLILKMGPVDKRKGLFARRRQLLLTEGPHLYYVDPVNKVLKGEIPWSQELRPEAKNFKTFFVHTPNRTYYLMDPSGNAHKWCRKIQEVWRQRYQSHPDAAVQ
Summary of the method: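 Detection used AlphaScreen: streptavidin donor and protein A acceptor beads (25 μg/ml each) bridged by a phospho-(Ser/Thr) PKA substrate antibody binding phosphorylated peptide. Reaction: biotin-PDK1-4 peptide (50 nM), ATP (10 uM), PDK1 in pH 7.5 Tris/MgCl2/DTT buffer, 3-18 hours, EDTA-stopped.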

[2] = test system: PC-3 cells; test: Cell Proliferation Assay (Cell Titer Glo), PC-3 cell line; assay type: cell-based; conditions: read-out: CPEC50 PC3
Summary of the method: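 Cell Titer Glo luminescence, read after fresh medium replaced the dosing medium, gave viability of PC-3 cells plated at 1000 cells/well. Compounds, 1:3 serially diluted in DMSO at 500× and then in medium, were added after 3-5 h adhesion and incubated 3 days at 37° C.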

Row | IC50 [1] [µM] | EC50 ([2]; Homo sapiens, PC-3, PC3 cells) [µM] | EC50 ([2]; PC3 cells) [µM] | SMILES
1 | < 5 | 5 to 10 | – | CN(C)[C@@H]1CCN(C(=O)c2cncc(-c3cccc4cnc(Nc5ccc(S(N)(=O)=O)cc5)nc34)c2)C1 [Compound 976, (R)-4-(8-(5-(3-(dimethylamino)pyrrolidine-1-carbonyl)pyridin-3-yl)quinazolin-2-ylamino)benzenesulfonamide]
2 | < 5 | 5 to 10 | – | CN1CCN(C(=O)c2cncc(-c3cccc4cnc(Nc5ccc(S(N)(=O)=O)cc5)nc34)c2)CC1 [Compound 977, 4-(8-(5-(4-methylpiperazine-1-carbonyl)pyridin-3-yl)quinazolin-2-ylamino)benzenesulfonamide]
3 | < 5 | 5 to 10 | – | CN(C)[C@H]1CCN(C(=O)c2cncc(-c3cccc4cnc(Nc5ccc(S(N)(=O)=O)cc5)nc34)c2)C1 [Compound 978, (S)-4-(8-(5-(3-(dimethylamino)pyrrolidine-1-carbonyl)pyridin-3-yl)quinazolin-2-ylamino)benzenesulfonamide]
4 | < 5 | 5 to 10 | – | NS(=O)(=O)c1ccc(Nc2ncc3cccc(-c4cncc(C(=O)NCCN5CCCC5)c4)c3n2)cc1 [Compound 979, N-(2-(pyrrolidin-1-yl)ethyl)-5-(2-(4-sulfamoylphenylamino)quinazolin-8-yl)nicotinamide]
5 | < 5 | 5 to 10 | – | CN(C)C1CCN(C(=O)c2cncc(-c3cccc4cnc(Nc5ccc(S(N)(=O)=O)cc5)nc34)c2)CC1 [Compound 980, 4-(8-(5-(4-(dimethylamino)piperidine-1-carbonyl)pyridin-3-yl)quinazolin-2-ylamino)benzenesulfonamide]
6 | < 5 | 5 to 10 | – | CN1CCC(NC(=O)c2cncc(-c3cccc4cnc(Nc5ccc(S(N)(=O)=O)cc5)nc34)c2)CC1 [Compound 981, N-(1-methylpiperidin-4-yl)-5-(2-(4-sulfamoylphenylamino)quinazolin-8-yl)nicotinamide]
7 | < 5 | 5 to 10 | – | CN1CCC(CNC(=O)c2cncc(-c3cccc4cnc(Nc5ccc(S(N)(=O)=O)cc5)nc34)c2)CC1 [Compound 982, N-((1-methylpiperidin-4-yl)methyl)-5-(2-(4-sulfamoylphenylamino)quinazolin-8-yl)nicotinamide]
8 | < 5 | 5 to 10 | – | NS(=O)(=O)c1ccc(Nc2ncc3cccc(-c4cncc(C(=O)N5CCNC(=O)C5)c4)c3n2)cc1 [Compound 983, 4-(8-(5-(3-oxopiperazine-1-carbonyl)pyridin-3-yl)quinazolin-2-ylamino)benzenesulfonamide]
9 | < 5 | 5 to 10 | – | NS(=O)(=O)c1ccc(Nc2ncc3cccc(-c4cncc(C(=O)N5CCOCC5)c4)c3n2)cc1 [Compound 984, 4-(8-(5-(morpholine-4-carbonyl)pyridin-3-yl)quinazolin-2-ylamino)benzenesulfonamide]
10 | < 5 | < 5 | – | CN1CCN(c2ccc(-c3cccc4cnc(Nc5ccc(S(N)(=O)=O)cc5)nc34)cc2)CC1 [Compound 985, 4-(8-(4-(4-methylpiperazin-1-yl)phenyl)quinazolin-2-ylamino)benzenesulfonamide]
11 | < 5 | < 5 | – | NS(=O)(=O)c1ccc(Nc2ncc3cccc(-c4ccc(CN5CCOCC5)cc4)c3n2)cc1 [Compound 986, 4-(8-(4-(mopholinomethyl)phenyl)quinazolin-2-ylamino)benzenesulfonamide]
12 | < 5 | < 5 | – | CC(C)NC(=O)c1ccc(Nc2ncc3cccc(-c4ccc(NCCN5CCCC5)nc4)c3n2)cc1 [Compound 993, N-isopropyl-4-(8-(6-(2-(pyrrolidin-1-yl)ethylamino)pyridin-3-yl)quinazolin-2-ylamino)benzamide]
13 | < 5 | < 5 | – | Fc1ccc(Nc2ncc3cccc(-c4ccc(NCCN5CCCC5)nc4)c3n2)cc1 [Compound 994, N-(4-fluorophenyl)-8-(6-(2-(pyrrolidin-1-yl)ethylamino)pyridin-3-yl)quinazolin-2-amine]
14 | < 5 | – | < 5 | Clc1ccc(Nc2ncc3cccc(-c4ccc(NCCN5CCCC5)nc4)c3n2)cc1 [Compound 995, N-(4-chorophenyl)-8-(6-(2-(pyrrolidin-1-yl)ethylamino)pyridin-3-yl)quinazolin-2-amine]
15 | < 5 | < 5 | – | c1cc(-c2ccc(NCCN3CCCC3)nc2)c2nc(Nc3ccc(N4CCOCC4)cc3)ncc2c1 [Compound 996, N-(4-morpholinophenyl)-8-(6-(2-(pyrrolidin-1-yl)ethylamino)pyridin-3-yl)quinazolin-2-amine]
16 | < 5 | < 5 | – | CNS(=O)(=O)Cc1ccc(Nc2ncc3cccc(-c4ccc(NCCN5CCCC5)nc4)c3n2)cc1 [Compound 998, N-methyl-1-(4-(8-(6-(2-(pyrrolidin-1-yl)ethylamino)pyridin-3-yl)quinazolin-2-ylamino)phenyl)methanesulfonamide]
17 | < 5 | < 5 | – | CN1CCN(c2ccc(-c3cccc4cnc(Nc5ccc(F)cc5)nc34)cn2)CC1 [Compound 999, N-(4-fluorophenyl)-8-(6-(4-methylpiperazin-1-yl)pyridin-3-yl)quinazolin-2-amine]
18 | < 5 | < 5 | – | O=c1[nH]c2ccc(Nc3ncc4cccc(-c5ccc(NCCN6CCCC6)nc5)c4n3)cc2[nH]1 [Compound 1000, 5-(8-(6-(2-(pyrrolidin-1-yl)ethylamino)pyridin-3-yl)quinazolin-2-ylamino)-1H-benzo[d]imidazol-2(3H)-one]
19 | < 5 | < 5 | – | Cc1ccc(Nc2ncc3cccc(-c4ccc(NCCN5CCCC5)nc4)c3n2)cc1NS(C)(=O)=O [Compound 1001, N-(2-methyl-5-(8-(6-(2-(pyrrolidin-1-yl)ethylamino)pyridin-3-yl)quinazolin-2-ylamino)phenyl)methanesulfonamide]
20 | < 5 | < 5 | – | CC(C)NS(=O)(=O)c1ccc(Nc2ncc3cccc(-c4ccc(NCCN5CCCC5)nc4)c3n2)cc1 [Compound 1016, N-isopropyl-4-(8-(6-(2-(pyrrolidin-1-yl)ethylamino)pyridin-3-yl)quinazolin-2-ylamino)benzenesulfonamide]
21 | < 5 | < 5 | – | Fc1ccc(Nc2ncc3cccc(-c4ccc(NCCN5CCCC5)nc4)c3n2)c(F)c1 [Compound 1017, N-(2,4-difluorophenyl)-8-(6-(2-(pyrrolidin-1-yl)ethylamino)pyridin-3-yl)quinazolin-2-amine]
22 | < 5 | < 5 | – | Fc1ccc(Nc2ncc3cccc(-c4ccc(NCCN5CCCC5)nc4)c3n2)cc1F [Compound 1018, N-(3,4-difluorophenyl)-8-(6-(2-(pyrrolidin-1-yl)ethylamino)pyridin-3-yl)quinazolin-2-amine]
23 | < 5 | < 5 | – | OCCc1ccc(Nc2ncc3cccc(-c4ccc(NCCN5CCCC5)nc4)c3n2)cc1 [Compound 1019, 2-(4-(8-(6-(2-(pyrrolidin-1-yl)elhylamino)pyridin-3-yl)quinazolin-2-ylamino)phenyl)ethanol]
24 | < 5 | < 5 | – | Fc1cccc(Nc2ncc3cccc(-c4ccc(NCCN5CCCC5)nc4)c3n2)c1 [Compound 1020, N-(3-fluorophenyl)-8-(6-(2-(pyrrolidin-1-yl)ethylamino)pyridin-3-yl)quinazolin-2-amine]
25 | < 5 | < 5 | – | Cn1cnnc1-c1cccc(Nc2ncc3cccc(-c4ccc(NCCN5CCCC5)nc4)c3n2)c1 [Compound 1021, N-(3-(4-methyl-4H-1,2,4-triazol-3-yl)phenyl)-8-(6-(2-(pyrrolidin-1-yl)ethylamino)pyridin-3-yl)quinazolin-2-amine]
26 | < 5 | < 5 | – | c1cc(Nc2ncc3cccc(-c4ccc(NCCN5CCCC5)nc4)c3n2)cc(N2CCOCC2)c1 [Compound 1022, N-(3-morpholinophenyl)-8-(6-(2-(pyrrolidin-1-yl)ethylamino)pyridin-3-yl)quinazolin-2-amine]
27 | < 5 | < 5 | – | FC(F)(F)c1cccc(Nc2ncc3cccc(-c4ccc(NCCN5CCCC5)nc4)c3n2)c1 [Compound 1023, 8-(6-(2-(pyrrolidin-1-yl)ethylamino)pyridin-3-yl)-N-(3-(trifluoromethyl)phenyl)quinazolin-2-amine]
28 | < 5 | < 5 | – | CC(=O)Nc1ccc(Nc2ncc3cccc(-c4ccc(NCCN5CCCC5)nc4)c3n2)cc1Cl [Compound 1024, N-(2-chloro-4-(8-(6-(2-(pyrrolidin-1-yl)ethylamino)pyridin-3-yl)quinazolin-2-ylamino)phenyl)acetamide]

Row | SMILES | IC50 [1] [µM] | EC50 ([2]; Homo sapiens, PC-3, PC3 cells) [µM] | EC50 ([2]; PC3 cells) [µM]
29 | NS(=O)(=O)c1ccc(Nc2ncc3cccc(C4=CCNCC4)c3n2)cc1 [Compound 987, 4-(8-(1.2,3,6-tetrahydropyridin-4-yl)quinazolin-2-ylamino)benzenesulfonamide] | < 5 | < 5 | –
